Measurements published in patent US7405041B2, “Methods for regulating transcription by targeting quadruplex DNA” (Arizona Board of Regents on behalf of the University of …, priority 2002, dated 2008).

Legend:
[1] = system: B-actin RNA; assay: Real-time reverse-transcription PCR gene expression in Colo-205 cells, B-actin; format: cell-based; conditions: minimally cytotoxic doses
Method: (§1) Cells were treated with telomestatin (interacts with the putative tetrad:heptad in HER-2/neu) and TmPyP4 (negative control) at various concentrations and times. Cytotoxicity studies using MTS were performed to determine a non-toxic or minimally toxic dose and duration of treatment. Cells were harvested after treatment for RNA extraction, and “target” versus “non-target” gene expression is measured by real-time reverse-transcription PCR according to established methods.
(§2) Target genes included two known tetrad/heptad (T:H) forming genes, HER-2/neu and c-MYB. c-MYC was analyzed as a positive control, having a known chair quadruplex forming regulatory unit in the nuclease hypersensitive element of the P1 promoter. […]
(§3) A panel of cell lines including SK-BR-3 breast cancer, BT-474 breast cancer, MCF-7 breast cancer, Colo-205 colon cancer, and HeLa cervical cancer were treated with the quadruplex interactive compound TmPyP4 to assess for the cytotoxicity of this agent against a panel of cell lines with various levels of expression of HER-2/neu, c-MYB, and c-MYC. At minimally cytotoxic doses, Colo-205 cells were analyzed for gene expression after treatment with TmPyP4 and using real-time reverse-transcription PCR.

[2] = system: c-MYC RNA; assay: Real-time reverse-transcription PCR gene expression in Colo-205 cells, c-MYC; format: cell-based; conditions: minimally cytotoxic doses
Method: as §1, §2, §3

[3] = system: HER-2/neu RNA; assay: Real-time reverse-transcription PCR gene expression in Colo-205 cells, HER-2/neu; format: cell-based; conditions: minimally cytotoxic doses
Method: as §1, §2, §3

[4] = system: c-MYB nucleic acid (heptad:tetrad quadruplex); assay: DNA polymerase arrest assay, c-MYB nucleic acid; format: biochemical; conditions: temperature gradient of 37° C. to 57° C., in the presence of potassium
Description: (§4) A polymerase arrest assay is useful for determining whether transcription is modulated by a candidate molecule and/or a nucleic acid binding protein. Such an assay includes a template nucleic acid, which often comprises a quadruplex forming sequence, and a primer nucleic acid which hybridizes to the template nucleic acid […] of the quadruplex-forming sequence. The primer is extended by a polymerase (e.g., Taq polymerase), which advances from the primer along the template nucleic acid. In this assay, a quadruplex structure can block or arrest the advance of the enzyme, leading to shorter transcription fragments. Also, the arrest assay may be conducted at a variety of temperatures, including 45° C. and 60° C., and at a variety of ion concentrations. An example of the Taq polymerase stop assay is described in Han, et al., Nucl. Acids Res. 27:537-542 (1999), which is a modification of that used by Weitzmann, et al., J. Biol. Chem. 271, 20958-20964 (1996). Briefly, a reaction mixture of template DNA (50 nM), Tris∘HCl (50 mM), MgCl2 (10 mM), DTT (0.5 mM), EDTA (0.1 mM), BSA (60 ng), and 5′-end-labeled quadruplex nucleic acid (˜18 nM) is heated to 90° C. for 5 minutes and allowed to cool to ambient temperature over 30 minutes. Taq Polymerase (1 μl) is added to the reaction mixture, and the reaction is maintained at a constant temperature for 30 minutes. […]

[5] = system: c-MYB RNA; assay: Real-time reverse-transcription PCR gene expression in Colo-205 cells, c-MYB; format: cell-based; conditions: minimally cytotoxic doses
Method: as §1, §2, §3

[6] = system: GAPDH RNA; assay: Real-time reverse-transcription PCR gene expression in Colo-205 cells, GAPDH; format: cell-based; conditions: minimally cytotoxic doses
Method: as §1, §2, §3

[7] = system: HER-2/neu quadruplex; assay: DNA polymerase arrest assay, HER-2/neu promoter template; format: biochemical; conditions: temperature gradient of 37° C. to 57° C., in the presence of potassium
Description: as §4

[8] = system: quadruplex DNA; conditions: stated as reason for use as negative control; cited from earlier work

Row | SMILES | B-actin RNA level [1] | c-MYC RNA level [2] | HER-2/neu RNA level [3] | interaction with and stabilization of the c-MYB nucleic acid [4] | c-MYB RNA level [5] | GAPDH RNA level [6] | interaction with and stabilization of the HER-2/neu quadruplex [7] | interaction with quadruplex DNA [8]
1 | C[n+]1ccc(-c2c3nc(c(-c4cc[n+](C)cc4)c4ccc([nH]4)c(-c4cc[n+](C)cc4)c4ccc([nH]4)c(-c4cc[n+](C)cc4)c4nc2C=C4)C=C3)cc1 [TMPyP4] | not a reduction | reduction | not a reduction | interacted with and stabilized the c-MYB nucleic acid | reduction | not a reduction | no apparent change in the stability of the HER-2/neu quadruplex | 
2 | C[n+]1ccccc1-c1c2nc(c(-c3cccc[n+]3C)c3ccc([nH]3)c(-c3cccc[n+]3C)c3ccc([nH]3)c(-c3cccc[n+]3C)c3nc1C=C3)C=C2 [TmPyP2] |  |  |  |  |  |  |  | interacts only weakly with quadruplex DNA
